Data set [1] addresses T1, polo-like kinase 3 (PLK3) (Homo sapiens, UniProt Q9H4B4).
T1 construct: purchased KINOMESCAN (www.kinomescan.com)
As to the kind of experiment: KINOMESCAN binding, PLK3. The note with it: 5 μM LY5. The method, then:
To determine the specificity of STAT blockade, we asked whether LY5 affected the phosphorylation of other family members including STAT1, STAT2, STAT4, and STAT6 [30–32]. […] To further define any potential off-target effects, we profiled the direct (steric) or indirect (allosteric) binding of LY5 to the binding sites of 96 human protein or lipid kinases (KINOMESCAN, www.kinomescan.com).
Supplementary file pone.0181885.s001.pdf: S1 Fig Kinomescan results for LY5. […] At 5 μM LY5 (B), only interaction with PLK3 was identified, mapped S-score (35) = 0.01. (PDF) Click here for additional data file.

The test system of data set [2] is ES and OS cells. As to the kind of experiment: Alamar Blue cell viability assay, ES and OS panel. In kind it is cell-based. The following applies: Homo sapiens; range over ES and OS cells. The method, then:
Sarcoma cell lines were seeded in 24-well plates in 1X RPMI medium containing 10% fetal bovine serum. Cells were then incubated with DMSO (control) or concentrations of LY5 ranging from 10 nM to 10 μM for 96 hrs. At the end of the incubation period, Alamar Blue (Invitrogen, Carlsbad, CA) was added to cells at one-tenth the volume of the cell culture medium and incubated for 3 hrs at 37° C in the dark. Fluorescence was then measured at an excitation/emissions wavelength of 570/590 nm and emission wavelength of 590 nm.
Fig 2 Biologic activity of LY5 in sarcoma cell lines. Dose response curves for LY5: RMS cell lines (RH30, RD, JR-1), ES cell lines (ES-3, ES-6, ES-7, ES-8), and an OS cell line (OS-17) were treated with LY5 (concentrations ranging from 10 nM to 10 μM) for 96 hours. Cell viability was determined using Alamar Blue staining. IC50 values are indicated for each cell line. Analyses were performed in triplicate and data are plotted as means ± standard deviation.

The nature of data set [3]: Clinical toxicities in normal dogs. Format: in vivo. The following applies: 1 mg/kg, 24 hour PK collection timeframe. The method, then:
LY5 was evaluated in two normal purpose-bred beagle dogs (female 8.8 kg; male 11.2 kg) receiving a single dose of 1mg/kg LY5 IV then orally by gavage 7 days later to establish the PK profile and assess the spectrum of clinical toxicities associated with LY5 administration. The oral dosing was repeated in the fed and fasted state. The starting dose was determined based on allometric scaling from the maximal tolerated dose studies performed in mice. Dogs were washed out for 30 days, and then given a dose of 25 mg in a capsule orally, followed by a 50 mg capsule dose 14 days later. Full PK sampling was performed over 24 hours following each dose of LY5. The dogs received LY5 and were used for the PK analysis but were not euthanized upon conclusion of the study.

Data set [4] relates to OS-17. As to the kind of experiment: Subcutaneous xenograft study. Format: in vivo, mice. The note with it: OS-17, 10 mg/kg daily for 28 days. Here is the method: (§1) C.B-17SC scid^-/- female mice (Taconic Farms, Germantown NY), were used to propagate subcutaneously implanted tumors. All mice were maintained under barrier conditions and experiments were conducted using protocols and conditions approved by the institutional animal care and use committee at University of Texas Health Science Center at San Antonio. Ten mice were used in each control or treatment group. Tumor volumes (cm^3) were determined and responses were determined using three activity measures as previously described.
(§2) The data were analyzed by using GraphPad Prism software (GraphPad Software, Inc., San Diego, CA). Data are presented as mean ± standard deviation. Data were analyzed by one-way analysis of variance (ANOVA), and Tukey’s post-test was used to assess differences between groups. Differences were considered statistically significant at p < 0.05. For in vivo xenograft models, an event was defined as four times the tumor volume at baseline similar to the PPTP criteria. The probabilities of time-to-event among groups were compared using log-rank test. The anti-tumor efficacy of LY5 was analyzed by using the statistical pipeline developed in PPTP [27].

Data set [5] has as its system Rh10. Briefly: Subcutaneous xenograft study. In kind it is in vivo, mice. The following applies: Rh10, 10 mg/kg daily for five days for four consecutive weeks. The method, then: as §1, §2
The test system of data set [6] is Rh36. Briefly: Subcutaneous xenograft study. The note with it: Rh36, 10 mg/kg daily for 28 days. In kind it is in vivo, mice. Here is the method:
as §1, §2

Data set [7] concerns the target STAT3 (Homo sapiens, UniProt P40763). Briefly: STAT3 phosphorylation in OS-1 PDX tumors. Details: from tissue; host or cells: OS-17-luc lung metastases and OS-1 subcutaneous PDX tumours in C.B-17 scid mice. The following applies: 40 mg/kg twice daily, tumors harvested 2 hrs after final drug administration. In kind it is in vivo, mice. The method, then:
To further examine the efficacy of LY5, we administered LY5 using subcutaneous PDX models of RMS (RH10 and RH36) and OS (OS-17 and OS-1). RH10, RH36 and OS-1 were derived from tissue explants, therefore no corresponding cell lines exist. Tumors were harvested 2 hrs after final drug administration. […] In addition, STAT3 phosphorylation was not observed in control or treated tumor derived from OS-17, and inhibition of STAT3 phosphorylation was not observed in OS-1 PDX models treated with 40 mg/kg twice daily.

The values that follow come from article PMC5531494, “Target specificity, in vivo pharmacokinetics, and efficacy of the putative STAT3 inhibitor LY5 in osteosarcoma, Ewing's sarcoma, and rhabdomyosarcoma” (PLoS ONE, 2017).

Marks after values point to notes of the source that are not given here.

T1 sequence (Q9H4B4 whole entry): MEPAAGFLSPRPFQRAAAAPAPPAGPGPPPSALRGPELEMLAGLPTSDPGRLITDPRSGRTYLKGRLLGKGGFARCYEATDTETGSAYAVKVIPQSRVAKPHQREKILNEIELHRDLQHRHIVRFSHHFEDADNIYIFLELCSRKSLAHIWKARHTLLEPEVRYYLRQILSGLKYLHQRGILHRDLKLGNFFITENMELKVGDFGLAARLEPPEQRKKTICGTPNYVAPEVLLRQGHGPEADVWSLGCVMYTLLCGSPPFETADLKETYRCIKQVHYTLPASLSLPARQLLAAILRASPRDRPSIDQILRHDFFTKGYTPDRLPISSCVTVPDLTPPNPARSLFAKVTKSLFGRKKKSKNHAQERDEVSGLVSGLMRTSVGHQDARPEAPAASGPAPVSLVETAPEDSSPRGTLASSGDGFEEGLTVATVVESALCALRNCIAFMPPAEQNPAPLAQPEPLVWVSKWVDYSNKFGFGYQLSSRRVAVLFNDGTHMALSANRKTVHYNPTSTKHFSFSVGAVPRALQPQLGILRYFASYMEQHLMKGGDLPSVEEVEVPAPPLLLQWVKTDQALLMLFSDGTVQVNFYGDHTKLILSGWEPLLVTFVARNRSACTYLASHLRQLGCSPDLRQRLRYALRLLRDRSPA
STAT3, sequence (P40763 whole entry): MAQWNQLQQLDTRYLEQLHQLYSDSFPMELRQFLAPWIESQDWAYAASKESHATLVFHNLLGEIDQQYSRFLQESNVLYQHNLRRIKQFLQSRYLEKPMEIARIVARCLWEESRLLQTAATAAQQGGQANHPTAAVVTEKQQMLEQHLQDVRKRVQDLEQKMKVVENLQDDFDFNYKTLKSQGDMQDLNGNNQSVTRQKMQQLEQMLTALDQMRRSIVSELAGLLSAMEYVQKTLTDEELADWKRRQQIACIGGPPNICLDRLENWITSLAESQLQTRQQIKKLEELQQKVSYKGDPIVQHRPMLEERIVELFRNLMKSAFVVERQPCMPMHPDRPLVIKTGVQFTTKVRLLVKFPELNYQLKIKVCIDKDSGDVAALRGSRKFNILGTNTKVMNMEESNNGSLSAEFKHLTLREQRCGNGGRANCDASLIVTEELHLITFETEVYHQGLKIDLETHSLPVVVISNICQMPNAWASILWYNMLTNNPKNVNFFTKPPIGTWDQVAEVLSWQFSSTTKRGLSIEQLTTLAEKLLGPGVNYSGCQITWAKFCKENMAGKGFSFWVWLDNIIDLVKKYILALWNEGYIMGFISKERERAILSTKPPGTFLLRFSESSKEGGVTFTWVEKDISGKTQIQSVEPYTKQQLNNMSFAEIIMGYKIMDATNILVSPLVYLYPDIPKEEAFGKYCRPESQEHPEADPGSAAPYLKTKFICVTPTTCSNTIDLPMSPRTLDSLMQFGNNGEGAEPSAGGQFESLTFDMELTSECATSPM

With `NS(=O)(=O)c1cccc2c1C(=O)C=C(Nc1cccnc1)C2=O` [LY5, 5,8-dioxo-6-(pyridin-3-ylamino)-5,8-dihydronaphthalene-1-sulfonamide], the “binding to PLK3” value in data set [1] is on record as “binding”. Further, in data set [2], the IC50 – broadly, the midpoint of a concentration-inhibition curve – was in the range of 1.4 to 5.1 µM. Also, in data set [3], the “tolerability / acute clinical toxicities” value is recorded as “well tolerated without apparent acute clinical toxicities”. Further, in data set [4], the “Event-free survival (Treatment/Control)” value is 1.15; the “Group Response” value is listed as “PD1 (Progressive disease 1, <50% tumor growth inhibition (TGI))”; the “Median day to event” value worked out at 19.7 days; the “Survival (%)” value was 90%. Also, in data set [5], the “Event-free survival (Treatment/Control)” value stood at 1.11; the “Group Response” value was “PD1^e (Progressive disease 1, <50% tumor growth inhibition (TGI))”; the “Median day to event” value amounted to 18.7 days; the “Survival (%)” value was 100%. In addition, in data set [6], the “Event-free survival (Treatment/Control)” value was found to be 0.94; the “Group Response” value is listed as “PD1 (Progressive disease 1, <50% tumor growth inhibition (TGI))”; the “Median day to event” value was found to be 16.5 days; the “Survival (%)” value was found to be 100%. For the same compound, in data set [7], the “inhibition of STAT3 phosphorylation in tumors” value is given as “not observed”.
